Measured values reported in publication PMC6941144 (ACS chemical biology, 2019).

Key:
[1] = system: HIV-1 protease 2Mut (V82F, I84V); assay: Enzyme inhibition; type: biochemical; conditions: primary active site mutations (2 mutations); abstract
[2] = molecular target: HIV-1 protease 9Mut-A71V (Human immunodeficiency virus type 1 group M subtype B, UniProt P12497, A559V/G504E/I501V/I572V/K533I/L521F/M534I/Q495K/V520I/V570F); conditions: relative to 8Mut; ΔG = RTln[Ki]
[3] = molecular target: HIV-1 protease 9Mut-L76V (Human immunodeficiency virus type 1 group M subtype B, UniProt P12497, G504E/I501V/I572V/K533I/L521F/L564V/M534I/Q495K/V520I/V570F); conditions: relative to 8Mut; ΔG = RTln[Ki]
[4] = molecular target: HIV-1 protease 10Mut (Human immunodeficiency virus type 1 group M subtype B, UniProt P12497, A559V/G504E/I501V/I572V/K533I/L521F/L564V/M534I/Q495K/V520I/V570F); conditions: relative to 8Mut; ΔG = RTln[Ki]
[5] = molecular target: HIV-1 protease 11Mut (Human immunodeficiency virus type 1 group M subtype B, UniProt P12497, A559V/G504E/I501V/I542L/I572V/K533I/L521F/L564V/M534I/Q495K/V520I/V570F); conditions: 11Mut vs WT

## CC(C)CN(C[C@@H](O)[C@H](Cc1ccccc1)NC(=O)O[C@H]1CO[C@H]2OCC[C@H]21)S(=O)(=O)c1ccc(N)cc1 [DRV, Darunavir]
[1]
  loss in potency: ~ 50 fold
[2]
  ΔΔG9Mut-A71V (change in free energy of inhibitor binding): 0.35 ± 0.07 kcal/mol
[3]
  ΔΔG9Mut-L76V (change in free energy of inhibitor binding): 1.55 ± 0.10 kcal/mol
[4]
  ΔΔG10Mut (change in free energy of inhibitor binding): 1.45 ± 0.05 kcal/mol
[5]
  decrease in inhibition compared to WT: 152,000 fold
